From patent US6046043A, “Method for the conversion of carbonyl compounds to their β-unsaturated derivatives using molecular oxygen as the oxidant” (The Regents of the University of Michigan, priority 1998, dated 2000) come the findings set out here.

For one series, the target named is T1, 8-CN-FMN-OYE (Saccharomyces pastorianus, UniProt Q02899).
T1 construct: made in house; host or cells: Escherichia coli (plasmid pET-3b)
Description: Oxidation of saturated carbonyl substrates by the catalyst with molecular oxygen (GC/MS). Type of series: biochemical. How it is done:
Two ml of 10 mM solution of hydrocinnamaldehyde (C6 H5 --CH2 --CH2 --CHO) in 100 mM sodium pyrophosphate buffer, pH 8.5 was taken in a 5 ml test tube with a small magnetic stir bar at room temperature. The catalyst, as a concentrated solution in the same buffer, was added to the above solution so that final concentration of the catalyst is 10 μM. […]
When and wherever side reactions were observed due to hydrogen peroxide (which is produced during the oxidation), 5 μl of catalase (1 mg/ml) was added to the reaction mixture prior to the addition of the catalyst as a hydrogen peroxide scavenger.
The racemic 3-phenyl-butyraldehyde was subjected to typical oxidation reaction with the catalytic system of the present invention. […] It can be concluded, in analogy to the 3-Me-cyclopentanone reaction, that the oxidation of S-enantiomer only catalyzed by the catalyst leaving the R-enantiomer intact as hydrogen at the asymmetric center lies in unfavorable geometry. This reaction once again highlights the potential of the present catalytic system in resolving racemic carbonyl compounds.

The target of another series is T2, Old Yellow Enzyme (Saccharomyces pastorianus, UniProt Q02899).
T2 construct: recombinant OYE I (pET-3b, E. coli) or enzyme isolated from brewer's bottom yeast (mix of close OYE isoforms)
The experiment in a line: p-Cl-phenol binding to native Old Yellow Enzyme (charge transfer complex). Also noted: species or system Brewer's Bottom Yeast. How it is done:
The apoprotein of Old Yellow Enzyme was prepared and reconstituted with 8-CN-8-demethyl-flavin mononucleotide as described above. […] Native enzyme binds p-Cl-phenol with a Kd of~1 μM and has a maximum of 645 nm for the charge transfer absorption band. The 115 nm blue shift thus falls in line with the 170 mV more positive potential compared to that of the native flavin.

A short description of series [1]: Redox potential of flavin cofactor. The format is physicochemical.

T1 sequence (Q02899 whole entry): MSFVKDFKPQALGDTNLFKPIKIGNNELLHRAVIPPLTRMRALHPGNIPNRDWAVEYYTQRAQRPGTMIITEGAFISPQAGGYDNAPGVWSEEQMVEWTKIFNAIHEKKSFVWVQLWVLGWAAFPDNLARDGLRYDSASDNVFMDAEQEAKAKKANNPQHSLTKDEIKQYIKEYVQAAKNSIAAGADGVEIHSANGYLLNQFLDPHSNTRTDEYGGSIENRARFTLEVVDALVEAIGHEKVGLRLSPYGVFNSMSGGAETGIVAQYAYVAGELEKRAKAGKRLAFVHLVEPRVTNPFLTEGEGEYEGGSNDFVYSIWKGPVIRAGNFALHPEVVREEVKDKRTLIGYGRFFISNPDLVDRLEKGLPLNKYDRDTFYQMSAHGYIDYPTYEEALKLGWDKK
T2 sequence (Q02899 2-400): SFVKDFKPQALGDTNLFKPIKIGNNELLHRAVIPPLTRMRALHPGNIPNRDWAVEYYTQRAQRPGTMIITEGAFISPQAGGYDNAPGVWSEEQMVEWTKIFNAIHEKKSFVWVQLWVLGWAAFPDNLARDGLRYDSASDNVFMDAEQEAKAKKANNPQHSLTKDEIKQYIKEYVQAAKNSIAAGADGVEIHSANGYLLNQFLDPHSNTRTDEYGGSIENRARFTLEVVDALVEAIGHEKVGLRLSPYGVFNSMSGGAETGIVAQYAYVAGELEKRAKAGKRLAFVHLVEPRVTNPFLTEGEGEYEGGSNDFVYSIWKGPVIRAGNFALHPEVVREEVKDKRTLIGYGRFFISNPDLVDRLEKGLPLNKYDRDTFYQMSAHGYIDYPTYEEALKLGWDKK

In the case of `O=CCCc1ccccc1` [hydrocinnamaldehyde], on 8-CN-FMN-OYE (10 mM substrate, 10 μM catalyst, pH 8.5, room temperature, 3 hours, GC/mass spectral analysis), the “conversion of the substrate to cinnamaldehyde” value was “complete conversion”. Consider `CC(CC=O)c1ccccc1` (racemic) [3-phenyl-butyraldehyde], for which, on 8-CN-FMN-OYE (racemic substrate, 36 hours-48 hours, GC/MS), the substrate reacted is ~ 50%.

In turn, `Oc1ccc(Cl)cc1` [p-Cl-phenol] gave a Kd on Old Yellow Enzyme of about 1000 nM.

With `Cc1cc2nc3c(=O)[nH]c(=O)nc-3n(C[C@H](O)[C@H](O)[C@H](O)COP(=O)(O)O)c2cc1C#N` [8-CN-FMN, 8-CN-8-demethyl-flavin mononucleotide], in series [1], the redox potential is -38 mV. Also, the “redox potential positive to the native cofactor, FMN” value in series [1] (difference versus FMN) is reported as “about 170 mV”.
